Publication PMC5667507, “A novel ^18F-labelled high affinity agent for PET imaging of the translocator protein” (Chemical Science, 2015)

Key:
[1] = Baseline dynamic PET scan of healthy baboon brain; type: in vivo; conditions: whole brain, 240 min dynamic PET, i.v. bolus
Protocol: Following PET reconstruction and co-registration to an MRI (Fig. 7a), a time–activity curve for the tracer in the whole brain was established (Fig. 7b). […]
divided by the animal weight. A secondary spherical VOI was used to define the contralateral kinetics and the tumour to contralateral SUV ratio was calculated as a function of time. […]
were represented graphically using the GraphPad Prism 6 software (GraphPad Softare Inc).
14. Primate PET Methodology
A baboon (Papio anubis, 21.3 kg) was fasted for up to 12 h prior to imaging. […] Body temperature was maintained using a heated water blanket and monitored by rectal thermometer. Vital signs, including end tidal CO2, SpO2, heart rate, respiration rate and blood pressure, were monitored continuously and recorded at least every 15 min during the study. […]
generated and SUV determined as the concentration in the VOI divided by the injected dose divided […]
exception of the samples collected for metabolite analysis (3.5 mL each), all blood samples were 1 mL each. […] After blood collection, all samples were kept on ice until analysed.
Radioactivity in whole blood and plasma was assessed with a well-type γ-counter using a 400–1400 keV window (Perkin Elmer Wallac 2480, USA). […]

TSPO = assay: Dynamic PET scan of a mouse bearing an intracranial U87MG-Luc2 tumour; type: in vivo; conditions: single mouse, 120 min dynamic PET, early portion of the scan
Protocol: In order to investigate the potential of [^18F]-AB5186 6 as a PET tracer for TSPO a dynamic PET scan was performed using the Albira imaging system (Carestream Molecular Imaging, USA) in a single mouse bearing an intracranial U87MG-Luc2 tumour for 120 min after intravenous administration of the tracer. Postmortem histological examination of the brain collected at the end of the scan was conducted to visualise the anatomical location of the tumour. Following reconstruction, the entire dynamic PET image was manually co-registered to key anatomical structures of the CT (i.e. the spine, the front limbs and the eye sockets). […]
Fig. 6 Averaged PET images of a U87MG-Luc2 glioma bearing mouse brain following [^18F]-AB5186 injection: (a) 0–40 min averaged, (b) 41–80 min averaged, and (c) 81–120 min averaged; 120 min dynamic scan. […] (f) Tracer kinetics expressed as a ratio of the tumour to contralateral SUVs.
20 min the mice were sacrificed by CO2 asphyxiation, the brains were removed and frozen using a Cryospray (Cellpath). […] The film was developed following an overnight incubation at −20 ° C and scanned using a Bio-Rad GS-800 Calibrated Densitometer with the aid the Quantity One Basic (version 4.6.3) software. Quantification was performed using the ImageJ 1.47v software. […]

CCN(CC)C(=O)c1nc2ccccc2c(-c2ccccc2)c1C[18F] [[^18F]-AB5186 6]
peak standardised uptake value (SUV) in brain [1]: 1.67
amount of tracer in tumour versus contralateral region (time-activity curve) (TSPO): greater amounts
